Assay results taken from US10512644B2, “Oligomer-opioid agonist conjugates” (Nektar Therapeutics, priority 2007, dated 2019).
Like-named read-outs stand apart in the source and are kept apart here.

Tests used:
[1] = in vivo; conditions: rat, iv, 25 mg/kg
[2] = target: T1, recombinant human kappa opioid receptor (Homo sapiens (Human), UniProt P41145); assay: biochemical; conditions: agonist mode; read-out: Kappa Agonist EC50, GTP-γS Binding
Description: (§4) The reaction is initiated by 0.3 nM [^35S]GTPγS for an additional 30 minutes incubation period. Test compound-induced increase of [^35S]GTPγS binding by 50 percent or more (≥50%) relative to the receptor subtype-specific agonist response indicates possible opiate receptor agonist activity.

[3] = target: T2, mu opioid receptor (Homo sapiens (Human), UniProt P35372); assay: cell-based; format: binding; conditions: whole CHO cells, 0.5 nM 3H Naloxone; read-out: Ki at MU Receptors
Description: (§1) Using conventional receptor binding assay techniques, several molecules were assayed to determine binding activity at kappa, mu and delta opioid subtypes of opioid receptors.
(§2) Cells were plated in 24 well plates at a density of 0.2-0.3*10^6 cells/well and washed with assay buffer containing 50 mM Tris.HCl and 5 mM MgCl2 (pH 7.4). Competition binding assays were conducted in whole cells incubated with increasing concentrations of test compounds in the presence of appropriate concentration of radioligand. 0.5 nM ^3H Naloxone, 0.5 nM ^3H Diprenorphine and 0.5 nM ^3H DPDPE were used as the competing radioligands for mu, kappa and delta receptors respectively. Incubations were carried out for two hours at room temperature using triplicate wells at each concentration. At the end of the incubation, cells were washed with 50 mM Tris HCl (pH 8.0), solubilized with NaOH and bound radioactivity was measured using a scintillation counter.
(§3) Specific binding is determined by subtraction of the cpm bound in the presence of 50-100× excess of cold ligand. Binding data assays were analyzed using GraphPad Prism 4.0 and IC50 is generated by non-linear regression from dose-response curves.

[4] = target: T1, recombinant human kappa opioid receptor; assay: cell-based; format: binding; conditions: whole CHO cells, 0.5 nM 3H Diprenorphine; read-out: Ki at KAPPA receptors
Description: as §1, §2, §3

[5] = target: recombinant human delta opioid receptor (Homo sapiens (Human), UniProt P41143); assay: Radioligand competition binding in whole CHO cells, delta opioid receptor (3H DPDPE)
recombinant human delta opioid receptor, sequence (P41143 whole entry, looked up): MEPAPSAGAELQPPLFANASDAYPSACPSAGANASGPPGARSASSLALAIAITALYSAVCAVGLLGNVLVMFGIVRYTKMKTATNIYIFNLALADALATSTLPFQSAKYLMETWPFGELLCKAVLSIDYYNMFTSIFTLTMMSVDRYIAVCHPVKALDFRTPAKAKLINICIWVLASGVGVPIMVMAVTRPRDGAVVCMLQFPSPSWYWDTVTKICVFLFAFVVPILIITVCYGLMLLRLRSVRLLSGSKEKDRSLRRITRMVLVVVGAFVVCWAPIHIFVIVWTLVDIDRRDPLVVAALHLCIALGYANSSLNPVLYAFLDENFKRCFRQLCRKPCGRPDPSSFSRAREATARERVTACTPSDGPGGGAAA
Description: as §1, §2, §3

[6] = target: T2, mu opioid receptor; assay: biochemical; conditions: antagonist mode vs 1 μM DAMGO; read-out: Mu Antagonist IC50, GTP-γS Binding
Description: as §4

[7] = test system: CD-1 male mice (phenylquinone-induced writhing, visceral pain); assay: Phenylquinone writhing analgesic assay; format: in vivo; conditions: mPEGn-O-HydroxyCodone series, writhing 35-45 min after pretreatment
Description: Mice were treated according to standard protocols. Mice were given a single “pretreatment” dose of a compound lacking covalent attachment of a water-soluble, non-peptidic oligomer (i.e., non-PEG oligomer-modified parent molecule), a corresponding version comprising the compound covalently attached to a water-soluble, non-peptidic oligomer (i.e., the conjugate), or control solution (IV, SC, IP or orally) thirty minutes prior to the administration of the phenylquinone (PQ) solution. Each animal was given an IP injection of an irritant (phenylquinone, PQ) that induces “writhing” which may include: contractions of the abdomen, twisting and turning of the trunk, arching of the back, and the extension of the hindlimbs. Each animal was given an IP injection of PQ (1 mg/kg PQ, 0.1 mL/10 g bodyweight). After the injection, the animals were returned to their observation enclosure and their behavior was observed. Contractions were counted between 35 and 45 minutes after the “pretreatment”. The animals were used once. Each tested article was dosed at a range between 0.1 and 100 mg/kg (n=5-10 animals/dose).

[8] = target: T2, mu opioid receptor; format: binding; conditions: mean IC50 ratio, ↓ = lower affinity
Description: Using conventional in vitro mu opioid receptor binding affinity assays, IC50 values were determined for each of alpha-6-mPEGn-O-hydrocodonol compounds.

[9] = Plasma pharmacokinetics after intravenous dosing in male Sprague-Dawley rats; conditions: IV 1 mg/kg, PEGylated hydroxycodone
[10] = target: cloned human mu opioid receptor (Homo sapiens (Human), UniProt P35372); format: cell-based; conditions: inhibition of cAMP formation, 3 μM forskolin, whole cells
Description: The efficacy of the various PEG-opioid conjugates was measured by their ability to inhibit cAMP formation following receptor activation. Studies were conducted in CHO cells heterologously expressing the cloned human mu, kappa or delta opioid receptors. cAMP was measured using a cAMP HiRange homogenous time-resolved fluorescence assay (HTRF Assay), that is based on a competitive immunoassay principle (Cisbio, Cat.#62AM6PEC).
Briefly, suspensions of cells expressing either the mu, kappa or delta opioid receptors were prepared in buffer containing 0.5 mM isobutyl-methyl xanthine (IBMX). […] EC50 values were calculated for each compound from a sigmoidal dose-response plot of concentrations versus maximum response. To determine if the compounds behaved as full or partial agonists in the system, the maximal response at the highest tested concentrations of compounds were compared to that produced by a known full agonist.

## COCCOCCOCCO[C@H]1CC[C@@]2(O)[C@H]3Cc4ccc(O)c5c4[C@@]2(CCN3CC2CCC2)[C@H]1O5 [6-O-mPEG3-Nalbuphine, 6-O-mPEG3-nalbuphine]
[1]
  Kp at 1 h: 0.23
[2]
  EC50: 26.8 nM
[3]
  Ki: 27.4 nM
[4]
  Ki: 218 nM
[5]
  Ki: 163 nM
[6]
  IC50: 398 nM

## COCCOCCOCCOCCO[C@H]1CC[C@@]2(O)[C@H]3Cc4ccc(O)c5c4[C@@]2(CCN3CC2CCC2)[C@H]1O5 [6-O-mPEG4-Nalbuphine, 6-O-mPEG4-nalbuphine]
[3]
  Ki: 17.5 nM
[5]
  Ki: 149 nM

## COc1ccc2c3c1O[C@H]1C(=O)CC[C@@]4(O)[C@@H](C2)N(C)CC[C@]314 [Oxycodone, oxycodone, reference compound]
[7]; Mus musculus, read-out: ED50
  ED50: 0.619 mg/kg

## COc1ccc2c3c1O[C@H]1[C@@H](O)CC[C@H]4[C@@H](C2)N(C)CC[C@@]341 [α-6-Hydrocodonol, 6-hydrocodonol, reference compound]
[8]
  Fold Change vs. Hydrocodone: 7.50 ↓

## COCCO[C@H]1CC[C@H]2[C@H]3Cc4ccc(OC)c5c4[C@@]2(CCN3C)[C@H]1O5 [α-6-mPEG1-O-Hydrocodonol]
[8]
  Fold Change vs. Hydrocodone: 6.03 ↓

## COCCO[C@H]1CC[C@@]2(O)[C@H]3Cc4ccc(OC)c5c4[C@@]2(CCN3C)[C@H]1O5 [α-6-mPEG1-O-Hydroxycodone, α-6-mPEG1-O-hydroxycodone]
[9]
  mean exposure (AUC) as compared to oxycodone: slightly lower mean exposure
[7]
  ED50: 6.064 mg/kg

## COCCOCCO[C@H]1CC[C@H]2[C@H]3Cc4ccc(OC)c5c4[C@@]2(CCN3C)[C@H]1O5 [α-6-mPEG2-O-Hydrocodonol]
[8]
  Fold Change vs. Hydrocodone: 5.84 ↓

## COCCOCCO[C@H]1CC[C@@]2(O)[C@H]3Cc4ccc(OC)c5c4[C@@]2(CCN3C)[C@H]1O5 [α-6-mPEG2-O-Hydroxycodone, α-6-mPEG2-O-hydroxycodone]
[9]
  mean exposure (AUC) as compared to oxycodone: slightly lower mean exposure

## COCCOCCOCCO[C@H]1CC[C@H]2[C@H]3Cc4ccc(OC)c5c4[C@@]2(CCN3C)[C@H]1O5 [α-6-mPEG3-O-Hydrocodonol]
[8]
  Fold Change vs. Hydrocodone: 5.87 ↓

## COCCOCCOCCOCCO[C@H]1CC[C@H]2[C@H]3Cc4ccc(OC)c5c4[C@@]2(CCN3C)[C@H]1O5 [α-6-mPEG4-O-Hydrocodonol]
[8]
  Fold Change vs. Hydrocodone: 7.14 ↓

## COCCOCCOCCOCCO[C@H]1CC[C@@]2(O)[C@H]3Cc4ccc(OC)c5c4[C@@]2(CCN3C)[C@H]1O5 [α-6-mPEG4-O-Hydroxycodone, α-6-mPEG4-O-hydroxycodone]
[9]
  mean exposure (AUC) as compared to oxycodone: slightly lower mean exposure
[7]
  ED50: 17.31 mg/kg

## COCCOCCOCCOCCOCCO[C@H]1CC[C@H]2[C@H]3Cc4ccc(OC)c5c4[C@@]2(CCN3C)[C@H]1O5 [α-6-mPEG5-O-Hydrocodonol]
[8]
  Fold Change vs. Hydrocodone: 6.20 ↓

## COCCOCCOCCOCCOCCOCCO[C@H]1CC[C@H]2[C@H]3Cc4ccc(OC)c5c4[C@@]2(CCN3C)[C@H]1O5 [α-6-mPEG6-O-Hydrocodonol]
[8]
  Fold Change vs. Hydrocodone: 11.12 ↓

## COCCOCCOCCOCCOCCOCCO[C@H]1CC[C@@]2(O)[C@H]3Cc4ccc(OC)c5c4[C@@]2(CCN3C)[C@H]1O5 [α-6-mPEG6-O-Hydroxycodone, α-6-mPEG6-O-hydroxycodone]
[9]
  mean exposure (AUC) as compared to oxycodone: comparable mean exposure

## COCCOCCOCCOCCOCCOCCOCCO[C@H]1CC[C@H]2[C@H]3Cc4ccc(OC)c5c4[C@@]2(CCN3C)[C@H]1O5 [α-6-mPEG7-O-Hydrocodonol]
[8]
  Fold Change vs. Hydrocodone: 26.32 ↓

## COCCOCCOCCOCCOCCOCCOCCO[C@H]1CC[C@@]2(O)[C@H]3Cc4ccc(OC)c5c4[C@@]2(CCN3C)[C@H]1O5 [α-6-mPEG7-O-Hydroxycodone, α-6-mPEG7-O-hydroxycodone]
[9]
  mean exposure (AUC) as compared to oxycodone: higher mean exposure

## COCCOCCOCCOCCOCCOCCOCCOCCO[C@H]1CC[C@H]2[C@H]3Cc4ccc(OC)c5c4[C@@]2(CCN3C)[C@H]1O5 [α-6-mPEG8-O-Hydrocodonol]
[8]
  Fold Change vs. Hydrocodone: 40.10 ↓

## COCCOCCOCCOCCOCCOCCOCCOCCOCCO[C@H]1CC[C@H]2[C@H]3Cc4ccc(OC)c5c4[C@@]2(CCN3C)[C@H]1O5 [α-6-mPEG9-O-Hydrocodonol]
[8]
  Fold Change vs. Hydrocodone: 16.30 ↓

## α-6-hydroxycodone
[10]
  EC50: 3160 nM
